Reference: ChEMBL document CHEMBL4049403, “Oligo-aspartic acid conjugates with benzo[c][2,6]naphthyridine-8-carboxylic acid scaffold as picomolar inhibitors of CK2” (Bioorg Med Chem, 2017)
Where a SMILES comes first, the peptide text is derived from it. The star is where a group is joined. X1 = O=C(O)c1ccc2c(c1)nc(OCCCCCCCCC(=O)*)c1ccncc12

What was measured:
[1] = target: MAP kinase-activated protein kinase 3 (Homo sapiens) (UniProt Q16644); assay: Inhibition of human MAPKAP-K3 assessed as residual activity at 1 uM in presence of [33P]ATP by filter binding assay relative to control
[2] = target: Serine/threonine-protein kinase N2 (Homo sapiens) (UniProt Q16513); assay: Inhibition of human PRK2 assessed as residual activity at 1 uM in presence of [33P]ATP by filter binding assay relative to control
[3] = target: Dual specificity protein kinase CLK2 (Homo sapiens) (UniProt P49760); assay: Inhibition of human CLK2 assessed as residual activity at 1 uM in presence of 33P-ATP by filter-binding assay relative to control
[4] = target: Aurora kinase B (Homo sapiens) (UniProt Q96GD4); assay: Inhibition of human Aurora B assessed as residual activity at 1 uM in presence of [33P]ATP by filter binding assay relative to control
[5] = target: Rho-associated protein kinase 2 (Homo sapiens) (UniProt O75116); assay: Inhibition of human ROCK2 assessed as residual activity at 1 uM in presence of [33P]ATP by filter binding assay relative to control
[6] = target: Mitogen-activated protein kinase kinase kinase 5 (Homo sapiens) (UniProt Q99683); assay: Inhibition of human ASK1 assessed as residual activity at 1 uM in presence of [33P]ATP by filter binding assay relative to control
[7] = target: Serine/threonine-protein kinase BRSK2 (Homo sapiens) (UniProt Q8IWQ3); assay: Inhibition of human BRSK2 assessed as residual activity at 1 uM in presence of [33P]ATP by filter binding assay relative to control
[8] = target: Maternal embryonic leucine zipper kinase (Homo sapiens) (UniProt Q14680); assay: Inhibition of human MELK assessed as residual activity at 1 uM in presence of [33P]ATP by filter binding assay relative to control
[9] = target: MAP/microtubule affinity-regulating kinase 4 (Homo sapiens) (UniProt Q96L34); assay: Inhibition of human MARK4 assessed as residual activity at 1 uM in presence of [33P]ATP by filter binding assay relative to control
[10] = target: Serine/threonine-protein kinase BRSK1 (Homo sapiens) (UniProt Q8TDC3); assay: Inhibition of human BRSK1 assessed as residual activity at 1 uM in presence of 33P-ATP by filter-binding assay relative to control
[11] = target: Mitogen-activated protein kinase 7 (Homo sapiens) (UniProt Q13164); assay: Inhibition of human ERK5 assessed as residual activity at 1 uM in presence of 33P-ATP by filter-binding assay relative to control
[12] = target: Homeodomain-interacting protein kinase 3 (Homo sapiens) (UniProt Q9H422); assay: Inhibition of human HIPK3 assessed as residual activity at 1 uM in presence of 33P-ATP by filter-binding assay relative to control
[13] = tested on: Serine/threonine-protein kinase MAP4K2 (Homo sapiens); assay: Inhibition of human GCK assessed as residual activity at 1 uM in presence of 33P-ATP by filter-binding assay relative to control
[14] = target: MAP kinase-interacting serine/threonine-protein kinase 2 (Homo sapiens) (UniProt Q9HBH9); assay: Inhibition of human MNK2 assessed as residual activity at 1 uM in presence of [33P]ATP by filter binding assay relative to control
[15] = target: Ribosomal protein S6 kinase beta-1 (Homo sapiens) (UniProt P23443); assay: Inhibition of human S6K1 assessed as residual activity at 1 uM in presence of 33P-ATP by filter-binding assay relative to control
[16] = target: Serine/threonine-protein kinase pim-2 (Homo sapiens) (UniProt Q9P1W9); assay: Inhibition of human PIM2 assessed as residual activity at 1 uM in presence of [33P]ATP by filter binding assay relative to control
[17] = target: Tyrosine-protein kinase ABL1 (Homo sapiens) (UniProt P00519); assay: Inhibition of human ABL assessed as residual activity at 1 uM in presence of [33P]ATP by filter binding assay relative to control
[18] = target: Mitogen-activated protein kinase 13 (Homo sapiens) (UniProt O15264); assay: Inhibition of human P38d MAPK assessed as residual activity at 1 uM in presence of [33P]ATP by filter binding assay relative to control
[19] = target: Ephrin type-B receptor 1 (Homo sapiens) (UniProt P54762); assay: Inhibition of human EPHB1 assessed as residual activity at 1 uM in presence of [33P]ATP by filter binding assay relative to control
[20] = target: Ephrin type-A receptor 4 (Homo sapiens) (UniProt P54764); assay: Inhibition of human EPH-A4 assessed as residual activity at 1 uM in presence of [33P]ATP by filter binding assay relative to control
[21] = target: Tyrosine-protein kinase Lck (Homo sapiens) (UniProt P06239); assay: Inhibition of human Lck assessed as residual activity at 1 uM in presence of 33P-ATP by filter-binding assay relative to control
[22] = target: High affinity nerve growth factor receptor (Homo sapiens) (UniProt P04629); assay: Inhibition of human TrkA assessed as residual activity at 1 uM in presence of [33P]ATP by filter binding assay relative to control
[23] = target: Serine/threonine-protein kinase 26 (Homo sapiens) (UniProt Q9P289); assay: Inhibition of human MST4 assessed as residual activity at 1 uM in presence of [33P]ATP by filter binding assay relative to control
[24] = target: Serine/threonine-protein kinase PLK1 (Homo sapiens) (UniProt P53350); assay: Inhibition of human PLK1 assessed as residual activity at 1 uM in presence of 33P-ATP by filter-binding assay relative to control
[25] = target: TGF-beta receptor type-1 (Homo sapiens) (UniProt P36897); assay: Inhibition of human TGFBR1 assessed as residual activity at 1 uM in presence of [33P]ATP by filter binding assay relative to control
[26] = target: Serine/threonine-protein kinase 3 (Homo sapiens) (UniProt Q13188); assay: Inhibition of human MST2 assessed as residual activity at 1 uM in presence of [33P]ATP by filter binding assay relative to control
[27] = target: Serine/threonine-protein kinase TBK1 (Homo sapiens) (UniProt Q9UHD2); assay: Inhibition of human TBK1 assessed as residual activity at 1 uM in presence of 33P-ATP by filter-binding assay relative to control
[28] = target: Eukaryotic elongation factor 2 kinase (Homo sapiens) (UniProt O00418); assay: Inhibition of human EF2K assessed as residual activity at 1 uM in presence of [33P]ATP by filter binding assay relative to control
[29] = target: Myosin light chain kinase, smooth muscle (Homo sapiens) (UniProt Q15746); assay: Inhibition of human SmMLCK assessed as residual activity at 1 uM in presence of [33P]ATP by filter binding assay relative to control

Sequence of MAP/microtubule affinity-regulating kinase 4 (Homo sapiens) (Q96L34 whole entry): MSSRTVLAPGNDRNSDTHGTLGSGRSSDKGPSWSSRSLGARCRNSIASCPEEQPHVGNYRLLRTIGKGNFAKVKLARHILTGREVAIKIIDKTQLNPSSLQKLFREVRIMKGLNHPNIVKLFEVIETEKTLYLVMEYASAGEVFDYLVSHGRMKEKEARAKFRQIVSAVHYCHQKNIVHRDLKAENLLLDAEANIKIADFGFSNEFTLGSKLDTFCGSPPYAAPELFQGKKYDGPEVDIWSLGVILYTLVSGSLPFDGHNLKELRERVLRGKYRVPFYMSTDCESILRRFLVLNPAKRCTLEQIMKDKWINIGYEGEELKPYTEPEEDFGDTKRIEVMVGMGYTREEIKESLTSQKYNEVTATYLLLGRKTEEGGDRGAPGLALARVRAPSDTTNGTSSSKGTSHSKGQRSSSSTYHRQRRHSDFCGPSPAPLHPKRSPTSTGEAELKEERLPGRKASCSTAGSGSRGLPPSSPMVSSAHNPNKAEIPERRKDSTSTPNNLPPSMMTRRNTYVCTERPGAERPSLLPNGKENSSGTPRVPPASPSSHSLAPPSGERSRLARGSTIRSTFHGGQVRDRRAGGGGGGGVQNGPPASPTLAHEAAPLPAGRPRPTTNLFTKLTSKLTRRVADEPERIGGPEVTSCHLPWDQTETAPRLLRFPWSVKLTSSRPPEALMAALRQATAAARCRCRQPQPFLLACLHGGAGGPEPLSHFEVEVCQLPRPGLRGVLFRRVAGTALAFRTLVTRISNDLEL
Sequence of Serine/threonine-protein kinase 26 (Homo sapiens) (Q9P289 2-416 limits assumed): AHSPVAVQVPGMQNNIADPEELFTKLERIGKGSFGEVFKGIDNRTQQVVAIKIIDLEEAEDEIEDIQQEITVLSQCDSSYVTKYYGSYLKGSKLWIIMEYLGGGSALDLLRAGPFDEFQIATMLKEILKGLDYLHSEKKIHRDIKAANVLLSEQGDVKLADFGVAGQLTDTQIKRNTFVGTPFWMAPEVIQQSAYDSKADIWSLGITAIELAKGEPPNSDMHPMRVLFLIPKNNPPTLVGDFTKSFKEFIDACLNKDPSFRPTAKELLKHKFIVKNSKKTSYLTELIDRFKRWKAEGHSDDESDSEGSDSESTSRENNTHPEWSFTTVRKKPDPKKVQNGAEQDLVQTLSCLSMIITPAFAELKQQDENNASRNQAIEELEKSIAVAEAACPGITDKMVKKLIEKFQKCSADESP
Sequence of Mitogen-activated protein kinase kinase kinase 5 (Homo sapiens) (Q99683 whole entry): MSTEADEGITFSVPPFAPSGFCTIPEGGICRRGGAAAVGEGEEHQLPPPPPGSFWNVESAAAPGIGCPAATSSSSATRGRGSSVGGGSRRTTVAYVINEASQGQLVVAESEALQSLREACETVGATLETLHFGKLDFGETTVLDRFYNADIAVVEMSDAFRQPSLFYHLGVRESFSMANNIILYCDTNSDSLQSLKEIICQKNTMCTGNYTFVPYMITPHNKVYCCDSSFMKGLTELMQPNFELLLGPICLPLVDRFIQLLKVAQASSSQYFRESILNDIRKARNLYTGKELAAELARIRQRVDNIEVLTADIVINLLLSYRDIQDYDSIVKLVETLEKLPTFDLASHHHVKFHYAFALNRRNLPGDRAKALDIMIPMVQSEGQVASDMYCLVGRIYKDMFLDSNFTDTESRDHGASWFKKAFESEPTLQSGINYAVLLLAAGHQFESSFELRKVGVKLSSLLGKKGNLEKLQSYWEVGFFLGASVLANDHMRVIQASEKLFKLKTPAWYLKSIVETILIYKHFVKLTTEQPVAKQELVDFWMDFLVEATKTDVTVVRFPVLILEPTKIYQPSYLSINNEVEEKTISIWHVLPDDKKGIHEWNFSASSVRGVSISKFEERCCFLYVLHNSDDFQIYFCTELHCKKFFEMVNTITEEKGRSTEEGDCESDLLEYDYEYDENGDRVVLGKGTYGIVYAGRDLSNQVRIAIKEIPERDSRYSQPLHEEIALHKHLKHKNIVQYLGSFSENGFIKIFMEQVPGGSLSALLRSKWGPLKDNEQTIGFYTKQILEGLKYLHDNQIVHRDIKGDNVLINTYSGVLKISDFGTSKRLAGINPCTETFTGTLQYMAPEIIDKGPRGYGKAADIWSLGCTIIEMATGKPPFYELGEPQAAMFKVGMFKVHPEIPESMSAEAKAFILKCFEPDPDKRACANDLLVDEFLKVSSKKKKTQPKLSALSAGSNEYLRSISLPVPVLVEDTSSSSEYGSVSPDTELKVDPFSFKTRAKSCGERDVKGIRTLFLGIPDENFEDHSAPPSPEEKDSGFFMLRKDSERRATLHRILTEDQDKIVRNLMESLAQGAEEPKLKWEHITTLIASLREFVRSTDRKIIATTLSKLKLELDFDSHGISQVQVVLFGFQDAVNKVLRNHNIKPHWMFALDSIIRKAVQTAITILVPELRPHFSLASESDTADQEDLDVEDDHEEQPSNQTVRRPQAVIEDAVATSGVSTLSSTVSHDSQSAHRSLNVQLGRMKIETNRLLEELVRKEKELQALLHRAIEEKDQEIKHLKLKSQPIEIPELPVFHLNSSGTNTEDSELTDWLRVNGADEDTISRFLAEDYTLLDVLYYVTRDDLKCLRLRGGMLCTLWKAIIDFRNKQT
Sequence of Rho-associated protein kinase 2 (Homo sapiens) (O75116 whole entry, looked up): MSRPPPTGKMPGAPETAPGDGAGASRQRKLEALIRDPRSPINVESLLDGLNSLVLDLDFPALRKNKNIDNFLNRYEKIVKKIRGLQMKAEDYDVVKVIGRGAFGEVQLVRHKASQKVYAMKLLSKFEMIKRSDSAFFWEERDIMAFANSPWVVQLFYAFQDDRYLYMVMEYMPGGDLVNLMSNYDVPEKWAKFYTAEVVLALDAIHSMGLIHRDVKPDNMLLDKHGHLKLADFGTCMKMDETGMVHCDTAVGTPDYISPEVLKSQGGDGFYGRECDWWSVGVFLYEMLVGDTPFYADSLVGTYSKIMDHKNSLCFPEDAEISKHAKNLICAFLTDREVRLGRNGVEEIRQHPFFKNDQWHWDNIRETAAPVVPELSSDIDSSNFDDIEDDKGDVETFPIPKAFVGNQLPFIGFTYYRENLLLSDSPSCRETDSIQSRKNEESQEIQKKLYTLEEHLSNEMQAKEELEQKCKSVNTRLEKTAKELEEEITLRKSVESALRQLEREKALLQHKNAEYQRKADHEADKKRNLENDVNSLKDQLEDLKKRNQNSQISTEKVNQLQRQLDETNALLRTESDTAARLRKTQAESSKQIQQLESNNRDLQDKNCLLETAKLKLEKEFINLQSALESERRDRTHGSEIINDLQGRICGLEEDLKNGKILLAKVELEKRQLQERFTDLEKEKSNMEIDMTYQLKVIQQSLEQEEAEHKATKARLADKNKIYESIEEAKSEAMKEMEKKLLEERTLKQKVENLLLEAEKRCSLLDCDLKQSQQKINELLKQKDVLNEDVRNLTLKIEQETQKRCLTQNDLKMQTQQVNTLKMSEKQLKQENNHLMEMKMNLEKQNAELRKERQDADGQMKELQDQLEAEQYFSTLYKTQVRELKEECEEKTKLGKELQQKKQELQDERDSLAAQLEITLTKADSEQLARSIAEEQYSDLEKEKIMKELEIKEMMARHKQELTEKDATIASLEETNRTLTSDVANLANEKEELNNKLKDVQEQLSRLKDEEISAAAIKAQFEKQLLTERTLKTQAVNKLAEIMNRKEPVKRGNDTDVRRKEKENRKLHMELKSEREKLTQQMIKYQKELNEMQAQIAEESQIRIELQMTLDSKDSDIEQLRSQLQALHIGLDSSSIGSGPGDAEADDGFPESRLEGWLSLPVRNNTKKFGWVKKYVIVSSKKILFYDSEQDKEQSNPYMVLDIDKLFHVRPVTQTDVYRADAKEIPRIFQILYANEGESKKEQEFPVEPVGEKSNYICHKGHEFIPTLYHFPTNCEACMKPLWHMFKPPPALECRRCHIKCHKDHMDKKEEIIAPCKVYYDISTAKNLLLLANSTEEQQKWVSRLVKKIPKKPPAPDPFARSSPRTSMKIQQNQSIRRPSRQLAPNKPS
Sequence of Mitogen-activated protein kinase 13 (Homo sapiens) (O15264 whole entry): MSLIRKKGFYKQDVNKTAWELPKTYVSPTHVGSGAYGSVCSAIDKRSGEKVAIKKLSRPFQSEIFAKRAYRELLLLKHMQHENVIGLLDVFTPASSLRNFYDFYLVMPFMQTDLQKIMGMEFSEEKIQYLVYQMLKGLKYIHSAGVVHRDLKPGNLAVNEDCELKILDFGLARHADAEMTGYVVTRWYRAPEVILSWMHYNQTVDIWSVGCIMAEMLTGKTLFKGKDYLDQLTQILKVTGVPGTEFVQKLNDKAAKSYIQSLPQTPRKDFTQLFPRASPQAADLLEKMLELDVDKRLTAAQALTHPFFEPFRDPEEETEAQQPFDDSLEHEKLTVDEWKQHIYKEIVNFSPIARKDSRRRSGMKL
Sequence of Serine/threonine-protein kinase 3 (Homo sapiens) (Q13188 whole entry): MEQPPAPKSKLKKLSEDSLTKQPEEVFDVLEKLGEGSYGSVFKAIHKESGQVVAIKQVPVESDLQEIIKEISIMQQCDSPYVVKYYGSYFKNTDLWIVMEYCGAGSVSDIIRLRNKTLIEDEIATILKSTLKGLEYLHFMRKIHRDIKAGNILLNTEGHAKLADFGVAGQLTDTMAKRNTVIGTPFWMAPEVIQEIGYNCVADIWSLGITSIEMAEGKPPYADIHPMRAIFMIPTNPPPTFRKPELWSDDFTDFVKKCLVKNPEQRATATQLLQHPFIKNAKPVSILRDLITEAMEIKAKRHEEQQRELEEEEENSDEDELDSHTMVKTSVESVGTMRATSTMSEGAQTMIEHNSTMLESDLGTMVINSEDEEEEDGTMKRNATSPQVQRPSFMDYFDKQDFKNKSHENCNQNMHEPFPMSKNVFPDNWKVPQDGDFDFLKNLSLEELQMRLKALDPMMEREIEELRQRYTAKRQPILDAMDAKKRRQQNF

Activity [1]: 82%
Activity [2]: 90%
Activity [3]: 19%
Activity [4]: 86%
Activity [5]: 90%
Activity [6]: 118%
Activity [7]: 91%
Activity [8]: 93%
Activity [9]: 91%
Activity [10]: 63%
Activity [11]: 39%
Activity [12]: 8%
Activity [13]: 15%
Activity [14]: 85%
Activity [15]: 31%
Activity [16]: 80%
Activity [17]: 100%
Activity [18]: 109%
Activity [19]: 89%
Activity [20]: 104%
Activity [21]: 39%
Activity [22]: 85%
Activity [23]: 67%
Activity [24]: 23%
Activity [25]: 85%
Activity [26]: 92%
Activity [27]: 34%
Activity [28]: 100%
Activity [29]: 98%
SMILES: NCCCC[C@H](NC(=O)[C@H](CC(=O)O)NC(=O)[C@H](CC(=O)O)NC(=O)[C@H](CC(=O)O)NC(=O)[C@H](CC(=O)O)NC(=O)[C@H](CC(=O)O)NC(=O)[C@H](CC(=O)O)NC(=O)CCCCCCCCOc1nc2cc(C(=O)O)ccc2c2cnccc12)C(=O)O (X1-DDDDDDK-OH)
